Reference: PubChem BioAssay AID463203 (Broad Institute, 2010)
Active and inactive are the calls of the source.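 The calls were made as follows: active = more than half of replicate measurements showing over 20% loss of kinase signal relative to plate controls; inconclusive = some but at most half of replicates over 20% loss; inactive = no replicate over 20% signal loss.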

target: Glycogen synthase kinase-3 alpha (Homo sapiens) (UniProt P49840); assay: concentration-response blocking of human GSK3A – biochemical, luminescence, cell-free homogeneous, retest, dose response (AID 463203); conditions: GSK-3 alpha enzyme, ADP-Glo luminescence, 60 min
Sequence (P49840 whole entry, looked up): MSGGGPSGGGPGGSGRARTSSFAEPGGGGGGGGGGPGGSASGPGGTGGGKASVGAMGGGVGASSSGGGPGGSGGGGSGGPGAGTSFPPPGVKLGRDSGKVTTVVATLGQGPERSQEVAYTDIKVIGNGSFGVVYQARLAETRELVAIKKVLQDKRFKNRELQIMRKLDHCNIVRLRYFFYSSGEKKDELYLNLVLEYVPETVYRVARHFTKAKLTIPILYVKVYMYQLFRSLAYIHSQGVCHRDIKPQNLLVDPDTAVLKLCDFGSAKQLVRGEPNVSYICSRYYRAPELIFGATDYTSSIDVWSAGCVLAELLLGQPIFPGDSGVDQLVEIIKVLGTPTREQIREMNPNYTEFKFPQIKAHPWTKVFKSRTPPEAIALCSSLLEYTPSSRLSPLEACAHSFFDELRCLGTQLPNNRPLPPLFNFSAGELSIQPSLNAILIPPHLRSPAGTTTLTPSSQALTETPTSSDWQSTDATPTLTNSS

Q: With CCN1CCN(c2nc(N)c([N+](=O)[O-])c(Nc3ccc(C)c(C)c3)n2)CC1 as the compound, how does the AC50 read?
A: > 30 µM (inactive)

Q: For COc1cc(/C=N/O)ccc1OCc1ccc([N+](=O)[O-])cc1, which AC50 is on record?
A: > 30 µM (inactive)

Q: With Fc1cccc(/C=N/Nc2ccccn2)c1 as the compound, how does the AC50 read?
A: > 30 µM (inactive)

Q: With COC(=O)c1oc2ccc(Br)cc2c1NC(=O)c1ccccc1 as the compound, how does the AC50 read?
A: > 30 µM (inactive)

Q: With CCC(CC)c1nnc(NC(=O)Oc2ccccc2)s1 as the compound, how does the AC50 read?
A: > 30 µM (inactive)

Q: Which AC50 does the source give for CC(=O)Nc1ccc(CC#N)cc1 here?
A: > 30 µM (inactive)

Q: Which AC50 does the source give for CC1CN(c2nc(Nc3ccccc3F)nc(N)c2[N+](=O)[O-])CC(C)O1 (configuration not stated) here?
A: 9.19 µM

Q: For N#CC(C#N)=C1CCc2ccccc2N1, which AC50 is on record?
A: > 30 µM (inactive)

Q: O=C(Nc1nccs1)C1CCN(S(=O)(=O)c2cnc[nH]2)CC1 was tested. Which AC50 did it give?
A: > 30 µM (inactive)

Q: For C[n+]1cccc(/C=N/Nc2nc(Cl)c(C#N)c(Cl)c2Cl)c1, which AC50 is on record?
A: > 30 µM (inactive)

Q: How did the AC50 turn out when Cc1ccc(NC(=O)C2CCN(c3ncnc4sc(C)c(C)c34)CC2)cc1S(=O)(=O)N(C)C was run?
A: > 30 µM (inactive)

Q: For CCOC(=O)/C(C#N)=C1/SC(CCO)C(=O)N1c1ccccc1 (configuration not stated), which AC50 is on record?
A: 13.1 µM

Q: How did the AC50 turn out when CCn1c2ccccc2c2nc3ccccc3nc21 was run?
A: > 30 µM (inactive)

Q: Which AC50 does the source give for COc1ccc(C(=O)Nc2nncs2)cc1S(=O)(=O)N1CC(c2ccccc2)CC1=O (configuration not stated) here?
A: > 30 µM (inactive)

Q: Which AC50 does the source give for O=C(Nc1ccc(C(=O)NC2CCCCC2)cc1)c1cccnc1 here?
A: > 30 µM (inactive)

Q: With Cn1c(SCC(=O)N/N=C/C=C\c2ccco2)nc2ccccc21 as the compound, how does the AC50 read?
A: > 30 µM (inactive)

Q: With COc1ccc(COC(=O)C2=C(C)NC(=O)NC2c2ccc(F)cc2)cc1 (configuration not stated) as the compound, how does the AC50 read?
A: > 30 µM (inactive)

Q: COc1cc(/C=c2\s/c(=C\C(=O)C(C)(C)C)[nH]c2=O)cc(OC)c1OC was tested. Which AC50 did it give?
A: > 30 µM (inactive)

Q: How did the AC50 turn out when CCn1nc(-c2ccccc2)nc2c(=O)n(C)c(=O)nc1-2 was run?
A: 27.3 µM

Q: How did the AC50 turn out when Cc1cccc(C)c1OCC(O)CNC(C)c1ccccc1 (configuration not stated) was run?
A: > 30 µM (inactive)

Q: With O=C1C2C3c4ccccc4C(c4ccccc43)C2C(=O)N1Cc1cccnc1 (configuration not stated) as the compound, how does the AC50 read?
A: > 30 µM (inactive)

Q: For O=C(Nc1cccc(-c2cnc3ccccc3n2)c1)c1cccc(NC(=O)c2ccco2)c1, which AC50 is on record?
A: > 30 µM (inactive)

Q: How did the AC50 turn out when CC1=C(C(=O)OC(C)C)C(c2cccs2)n2ncnc2N1 (configuration not stated) was run?
A: 28.8 µM

Q: Cc1ccc(CNc2nc(N)c([N+](=O)[O-])c(NCc3ccccc3)n2)cc1 was tested. Which AC50 did it give?
A: > 30 µM (inactive)

Q: With CCOC(=O)c1nnn(-c2nonc2N)c1-c1ccc(F)cc1 as the compound, how does the AC50 read?
A: 16.1 µM

Q: Which AC50 does the source give for CCCOc1cccc(-c2nnc(N)s2)c1 here?
A: > 30 µM (inactive)

Q: How did the AC50 turn out when CCOc1ccc(Cn2nnc(C(=O)Nc3cc(C)cc(C)c3)c2N)cc1 was run?
A: > 30 µM (inactive)

Q: With COc1ccc(C2c3sc(=O)[nH]c3SC3C4CCC(C4)C23)cc1OC (configuration not stated) as the compound, how does the AC50 read?
A: 1.92 µM

Q: How did the AC50 turn out when O=S(=O)(NCC1CCCO1)c1ccc(Cl)nc1 (configuration not stated) was run?
A: > 30 µM (inactive)

Q: O=c1c2ccccc2[nH]c2ccccc12 was tested. Which AC50 did it give?
A: > 30 µM (inactive)

Q: For CC1(C)CC(=O)C(C2c3ccccc3S(=O)(=O)c3ccccc32)C(=O)C1, which AC50 is on record?
A: > 30 µM (inactive)

Q: For CCOC(=O)C1=C(c2ccccc2)Nc2ncnn2C1c1cccc(OC)c1OC (configuration not stated), which AC50 is on record?
A: 9 µM

Q: With COc1cccc(C2CC(=O)N3CN(c4ccccc4F)CSC3=C2C#N)c1 (configuration not stated) as the compound, how does the AC50 read?
A: > 30 µM (inactive)

Q: For O=C(CSc1nnc(SCc2ccccc2)s1)N/N=C/c1ccc(C(=O)O)cc1, which AC50 is on record?
A: 2.55 µM

Q: Which AC50 does the source give for CC(C(=O)Nc1nccs1)c1ccc([N+](=O)[O-])cc1 (configuration not stated) here?
A: 20.5 µM

Q: How did the AC50 turn out when Cc1nc(NCC2CCCO2)nc2c1C(=O)CC(C)C2 (configuration not stated) was run?
A: > 30 µM (inactive)

Q: Which AC50 does the source give for CSc1nc2n(n1)C(c1ccccn1)C1=C(CC(C)(C)CC1=O)N2 (configuration not stated) here?
A: > 30 µM (inactive)

Q: With O=C1NC(c2ccccc2)(C(F)(F)F)C(=O)N1Cc1cccnc1 (configuration not stated) as the compound, how does the AC50 read?
A: > 30 µM (inactive)

Q: For Nc1ncc([N+](=O)[O-])s1, which AC50 is on record?
A: > 30 µM (inactive)

Q: With Cc1ccc2c(c1)N(CCC(=O)NC(C)C)C(=O)CO2 as the compound, how does the AC50 read?
A: > 30 µM (inactive)

Q: How did the AC50 turn out when O=c1c(O)c(-c2cc(O)c(O)c(O)c2)oc2cc(O)cc(O)c12 was run?
A: 4.13 µM

Q: With N#Cc1c(-c2ccccc2Cl)c2c([nH]c1=O)-c1ccccc1OC2 as the compound, how does the AC50 read?
A: > 30 µM (inactive)
